The assay has as its target T1, human recombinant adrenergic α1D receptor (Homo sapiens, UniProt P25100).
T1 construct: expressed in transfected cells; host or cells: HEK-293 cells
T1 sequence (P25100 1-572): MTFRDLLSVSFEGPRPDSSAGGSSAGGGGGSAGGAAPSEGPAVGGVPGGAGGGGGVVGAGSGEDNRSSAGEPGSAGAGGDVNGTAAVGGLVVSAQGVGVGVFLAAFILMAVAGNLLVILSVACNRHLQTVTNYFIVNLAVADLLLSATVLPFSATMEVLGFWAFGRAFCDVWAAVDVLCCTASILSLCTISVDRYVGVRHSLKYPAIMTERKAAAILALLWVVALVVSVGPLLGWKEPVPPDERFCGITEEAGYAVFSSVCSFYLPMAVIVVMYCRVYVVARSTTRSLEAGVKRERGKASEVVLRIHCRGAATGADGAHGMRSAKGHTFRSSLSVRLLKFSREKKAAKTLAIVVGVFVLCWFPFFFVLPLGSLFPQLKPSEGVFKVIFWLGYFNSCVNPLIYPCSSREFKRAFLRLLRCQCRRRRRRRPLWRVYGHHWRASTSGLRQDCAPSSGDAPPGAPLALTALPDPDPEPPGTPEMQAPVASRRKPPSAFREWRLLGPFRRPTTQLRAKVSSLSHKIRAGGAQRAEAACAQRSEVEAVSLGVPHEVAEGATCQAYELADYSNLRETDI
As to the kind of experiment: Adrenergic alpha1D radioligand binding ([3H]Prozosin). The note with it: compound at 1 μM; read-out: Adrenergic (1 μM) α1D, percent inhibition of specific binding. Summed up: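 Membranes from HEK-293 cells expressing the human receptor in 50 mM Tris-HCl pH 7.4 were incubated 60 min at 25 °C with 0.6 nM [3H]prazosin. Nonspecific binding was defined with 10 μM phentolamine, and bound ligand measured by filtration.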
For orientation: inhibition means the drop in the measured response relative to a control, in per cent. For `C/C(=C\n1c2c(c3cc(C)ccc31)CCN(C)CC2)c1ccc(Cl)cc1` [Compound No. 33, 6-((E)-2-(4-chlorophenyl)prop-1-enyl)-1,2,3,4,5,6-hexahydro-3,9-dimethylazepino[4,5-b]indole], the inhibition at 1 µM was 99%.

Regarding `Cc1ccc(CCn2c3c(c4cc(Cl)ccc42)CCN(C)CC3)cc1` [Compound No. 46, 9-chloro-3-methyl-6-(4-methylphenethyl)-1,2,3,4,5,6-hexahydroazepino[4,5-b]indole], the inhibition at 1 µM stood at 88%.

With `Cc1ccc2c(c1)c1c(n2CC(=O)N2CCCCC2)CCN(C)CC1` [Compound No. 32, 2-(2,3,4,5-tetrahydro-3,9-dimethylazepino[4,5-b]indol-6(1H)-yl)-1-(piperidin-1-yl)ethanone], the inhibition at 1 µM came to 4%.

`CN1CCc2c(n(CC(=O)N3CCCC3)c3ccc(Cl)cc23)CC1` [Compound No. 53, 2-(9-chloro-2,3,4,5-tetrahydro-3-methylazepino[4,5-b]indol-6(1H)-yl)-1-(pyrrolidin-1-yl)ethanone]: the inhibition at 1 µM turned out to be 13%.
